Results from patent US20140005163A1 (NOVARTIS AG, priority 2010, published 2014).
pIC50: −log10 of the molar value. In brackets after ≈: the same amount, converted by molar mass. Like-named read-outs stand apart in the source and are kept apart here.

Columns and labels:
[1] = tested on: PKB Ser473 phosphorylation in Rat1-myr-HA-p110 delta cells; assay: Reverse protein array assay, PKB Ser473 phosphorylation in Rat1-myr-p110 delta cells; type: cell-based; conditions: read-out: p-PKB IC50
How it was run: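 After at least 20 h of culture, the p110 isoform-transfected Rat1 lines receive compound in an 8-step dilution series, keeping DMSO at 0.2%, for 30 minutes. Cells are then lysed and lysates arrayed on chips for fluorescence detection of Ser473-phosphorylated PKB.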

mTOR = target: T1, mTOR (Homo sapiens, UniProt P42345); assay: Biochemical assay for m-TOR by TR-FRET; conditions: 8 μM ATP, 400 nM GFP-4EBP1, 0.5 nM mTOR
T1 construct: purchased Invitrogen Corporation (Carlsbad/CA, USA) PV4753
T1 sequence (P42345 1360-2549 limits assumed): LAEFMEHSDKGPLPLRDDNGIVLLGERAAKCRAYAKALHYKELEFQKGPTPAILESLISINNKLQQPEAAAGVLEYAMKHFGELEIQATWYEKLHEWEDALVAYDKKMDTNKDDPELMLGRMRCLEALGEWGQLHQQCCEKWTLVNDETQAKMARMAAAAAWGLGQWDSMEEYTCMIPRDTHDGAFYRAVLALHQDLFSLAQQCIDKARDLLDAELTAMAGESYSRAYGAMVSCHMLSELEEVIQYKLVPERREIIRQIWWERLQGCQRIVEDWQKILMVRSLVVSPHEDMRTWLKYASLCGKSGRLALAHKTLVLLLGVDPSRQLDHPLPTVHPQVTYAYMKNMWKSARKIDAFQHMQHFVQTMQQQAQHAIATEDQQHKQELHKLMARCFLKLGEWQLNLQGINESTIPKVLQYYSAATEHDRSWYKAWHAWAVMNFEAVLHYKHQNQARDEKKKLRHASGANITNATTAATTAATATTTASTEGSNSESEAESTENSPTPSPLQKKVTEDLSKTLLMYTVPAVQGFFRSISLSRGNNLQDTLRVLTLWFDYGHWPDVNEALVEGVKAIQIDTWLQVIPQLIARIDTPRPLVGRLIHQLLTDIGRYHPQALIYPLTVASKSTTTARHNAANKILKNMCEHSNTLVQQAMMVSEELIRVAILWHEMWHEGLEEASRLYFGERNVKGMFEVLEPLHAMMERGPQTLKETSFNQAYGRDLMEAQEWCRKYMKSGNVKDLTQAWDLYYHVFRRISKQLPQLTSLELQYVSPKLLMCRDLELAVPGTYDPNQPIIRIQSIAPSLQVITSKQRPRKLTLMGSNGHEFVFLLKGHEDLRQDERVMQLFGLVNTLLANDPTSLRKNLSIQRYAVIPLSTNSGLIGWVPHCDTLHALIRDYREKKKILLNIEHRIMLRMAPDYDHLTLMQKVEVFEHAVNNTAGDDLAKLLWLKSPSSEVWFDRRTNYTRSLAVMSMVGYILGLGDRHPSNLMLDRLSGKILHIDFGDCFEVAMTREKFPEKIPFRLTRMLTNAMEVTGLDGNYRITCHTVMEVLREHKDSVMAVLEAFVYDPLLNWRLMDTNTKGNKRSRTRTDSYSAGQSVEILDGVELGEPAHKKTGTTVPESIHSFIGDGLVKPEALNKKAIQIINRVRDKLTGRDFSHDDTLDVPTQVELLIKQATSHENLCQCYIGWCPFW
How it was run: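 TR-FRET read-out: Tb-labelled anti-p4EBP1 pThr46 antibody (0.5 nM), added in EDTA to stop the reaction, detects phosphorylated GFP-4EBP1 after 15 min. Kinase step used 0.5 nM mTOR, 400 nM substrate, 8 μM ATP, MnCl2-containing HEPES buffer pH 7.5, room temperature.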

Solubility at pH 6.8 = type: physicochemical
How it was run: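 Following the procedure of Zhou et al. (2007), compound solubility was determined at pH 6.8.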

[2] = pH 6.8, aqueous buffer, thermodynamic from solid, read-out: solubility

pIC50 [1]	pIC50 (mTOR)	solubility (Solubility at pH 6.8; [2]) [µg/mL]	solubility (Solubility at pH 6.8; pH 6.8) [µg/mL]	SMILES
6.35	7.34	33 (≈ 77.7 µM)		Cc1nn(C)cc1-n1c(=O)n(C)c2cnc3ccc(-c4ccc5c(c4)CC(=O)N5)cc3c21 [Example 49, 1-(1,3-Dimethyl-1H-pyrazol-4-yl)-3-methyl-8-(2-oxo-2,3-dihydro-1H-indol-5-yl)-1,3-dihydro-imidazo[4,5-c]quinolin-2-one]
6.89	6.97	3 (≈ 6.3 µM)		Cc1nn(C)cc1-n1c(=O)n(C)c2cnc3ccc(-c4cccc(S(=O)(=O)N(C)C)c4)cc3c21 [Example 53.1, 3-[1-(1,3-Dimethyl-1H-pyrazol-4-yl)-3-methyl-2-oxo-2,3-dihydro-1H-imidazo[4,5-c]quinolin-8-yl]-N,N-dimethyl-benzenesulfonamide]
6.95	7.10	164 (≈ 396 µM)		COCc1cncc(-c2ccc3ncc4c(c3c2)n(-c2cn(C)nc2C)c(=O)n4C)c1 [Example 54.1, 1-(1,3-Dimethyl-1H-pyrazol-4-yl)-8-(5-methoxymethyl-pyridin-3-yl)-3-methyl-1,3-dihydro-imidazo[4,5-c]quinolin-2-one]
7.96	7.80	14 (≈ 32.2 µM)		CCOc1cncc(-c2ccc3ncc4c(c3c2)n(-c2cn(C)nc2Cl)c(=O)n4C)c1 [Example 56.4, 1-(3-Chloro-1-methyl-1H-pyrazol-4-yl)-8-(5-ethoxy-pyridin-3-yl)-3-methyl-1,3-dihydro-imidazo[4,5-c]quinolin-2-one]
7.37	7.85	> 428		Cc1nn(C)cc1-n1c(=O)n(C)c2cnc3ccc(-c4cncc(OC(C)C)c4)cc3c21 [Example 58.1, 1-(1,3-Dimethyl-1H-pyrazol-4-yl)-8-(5-isopropoxy-pyridin-3-yl)-3-methyl-1,3-dihydro-imidazo[4,5-c]quinolin-2-one]
6.45	7.64	466 (≈ 907 µM)		CCN(C)C(=O)Cn1cc(-n2c(=O)n(C)c3cnc4ccc(-c5cncc(OC(C)C)c5)cc4c32)c(C)n1 [Example 58.5, N-Ethyl-2-{4-[8-(5-isopropoxy-pyridin-3-yl)-3-methyl-2-oxo-2,3-dihydro-imidazo[4,5-c]quinolin-1-yl]-3-methyl-pyrazol-1-yl}-N-methyl-acetamide]
6.80	7.52	3 (≈ 6.56 µM)		COc1ncc(-c2ccc3ncc4c(c3c2)n(-c2cn(C)nc2C)c(=O)n4C)cc1NC(C)=O [Example 64, N-{5-[1-(1,3-Dimethyl-1H-pyrazol-4-yl)-3-methyl-2-oxo-2,3-dihydro-1H-imidazo[4,5-c]quinolin-8-yl]-2-methoxy-pyridin-3-yl}-acetamide]
6.75	6.68		2 (≈ 4.49 µM)	COc1ncc(-c2ccc3ncc4c(c3c2)n(-c2cn(C)nc2C)c(=O)n4C)cc1[N+](=O)[O-] [Example 66, 1-(1,3-dimethyl-1H-pyrazol-4-yl)-8-(6-methoxy-5-nitro-pyridin-3-yl)-3-methyl-1,3-dihydro-imidazo[4,5-c]quinolin-2-one]
6.65	6.75	37 (≈ 87 µM)		Cc1nn(C)cc1-n1c(=O)n(C)c2cnc3ccc(-c4cnc5c(c4)nnn5C)cc3c21 [Example 72, 1-(1,3-Dimethyl-1H-pyrazol-4-yl)-3-methyl-8-(3-methyl-3H-[1,2,3]triazolo[4,5-b]pyridin-6-yl)-1,3-dihydro-imidazo[4,5-c]quinolin-2-one]
6.55	7.52	8 (≈ 18.8 µM)		Cc1nn(C)cc1-n1c(=O)n(C)c2cnc3ccc(-c4cnc5c(c4)ncn5C)cc3c21 [Example 74, 1-(1,3-Dimethyl-1H-pyrazol-4-yl)-3-methyl-8-(3-methyl-3H-imidazo[4,5-b]pyridin-6-yl)-1,3-dihydro-imidazo[4,5-c]quinolin-2-one]
7.80	> 8.52		2 (≈ 4.58 µM)	Cc1nn(C)cc1-n1c(=O)n(C)c2cnc3ccc(-c4ccc(-n5cccn5)nc4)cc3c21 [Example 79, 1-(1,3-Dimethyl-1H-pyrazol-4-yl)-3-methyl-8-(6-pyrazol-1-yl-pyridin-3-yl)-1,3-dihydro-imidazo[4,5-c]quinolin-2-one]
7.74	8.40	219 (≈ 495 µM)		Cc1ncc(-c2ccc3ncc4c(c3c2)n(-c2cn(C)nc2C)c(=O)n4C)cc1OC(C)C [Example 84.1, 1-(1,3-Dimethyl-1H-pyrazol-4-yl)-8-(5-isopropoxy-6-methyl-pyridin-3-yl)-3-methyl-1,3-dihydro-imidazo[4,5-c]quinolin-2-one]
6.20	7.54	> 513		CCNc1cc(-c2ccc3ncc4c(c3c2)n(-c2c(C)nn(CC(=O)N(C)C)c2C)c(=O)n4C)cnc1C [Example 87.5, 2-{4-[8-(5-Ethylamino-6-methyl-pyridin-3-yl)-3-methyl-2-oxo-2,3-dihydro-imidazo[4,5-c]quinolin-1-yl]-3,5-dimethyl-pyrazol-1-yl}-N,N-dimethyl-acetamide]
7.34	6.89	> 502		CCNc1cc(-c2ccc3ncc4c(c3c2)n(-c2c(C)nn(CCOC)c2C)c(=O)n4C)cnc1OC [Example 90.2, 8-(5-Ethylamino-6-methoxy-pyridin-3-yl)-1-[1-(2-methoxy-ethyl)-3,5-dimethyl-1H-pyrazol-4-yl]-3-methyl-1,3-dihydro-imidazo[4,5-c]quinolin-2-one]
7.72	> 8.52		2 (≈ 4.88 µM)	Cc1nn(C)cc1-n1c(=O)n(C)c2cnc3ccc(-c4cnc5cc[nH]c5c4)cc3c21 [Example 99, 1-(1,3-Dimethyl-1H-pyrazol-4-yl)-3-methyl-8-(1H-pyrrolo[3,2-b]pyridin-6-yl)-1,3-dihydro-imidazo[4,5-c]quinolin-2-one]
6.71	7.22	49 (≈ 114 µM)		Cc1nn(C)cc1-n1c(=O)n(C)c2cnc3ccc(-c4ccc(OCCO)nc4)cc3c21 [Example 107, 1-(1,3-Dimethyl-1H-pyrazol-4-yl)-8-[6-(2-hydroxy-ethoxy)-pyridin-3-yl]-3-methyl-1,3-dihydro-imidazo[4,5-c]quinolin-2-one]
6.71	7.85		2 (≈ 4.99 µM)	CCOc1ccc(-c2ccc3ncc4[nH]c(=O)n(-c5cn(C)nc5C)c4c3c2)cn1 [Example 110, 1-(1,3-Dimethyl-1H-pyrazol-4-yl)-8-(6-ethoxy-pyridin-3-yl)-1,3-dihydro-imidazo[4,5-c]quinolin-2-one]
8.00	8.40	30 (≈ 75.1 µM)		CNc1ccc(-c2ccc3ncc4c(c3c2)n(-c2cn(C)nc2C)c(=O)n4C)cn1 [Example 118.2, 1-(1,3-Dimethyl-1H-pyrazol-4-yl)-3-methyl-8-(6-methylamino-pyridin-3-yl)-1,3-dihydro-imidazo[4,5-c]quinolin-2-one]
7.68	8.40	70 (≈ 169 µM)		CCn1cc(-n2c(=O)n(C)c3cnc4ccc(-c5ccc(NC)nc5)cc4c32)c(C)n1 [Example 118.4, 1-(1-Ethyl-3-methyl-1H-pyrazol-4-yl)-3-methyl-8-(6-methylamino-pyridin-3-yl)-1,3-dihydro-imidazo[4,5-c]quinolin-2-one]
6.47	7.04	47 (≈ 98.4 µM)		Cc1nn(C)cc1-n1c(=O)n(C)c2cnc3ccc(-c4cncc(N(C)S(C)(=O)=O)c4)cc3c21 [Example 121, N-{5-[1-(1,3-Dimethyl-1H-pyrazol-4-yl)-3-methyl-2-oxo-2,3-dihydro-1H-imidazo[4,5-c]quinolin-8-yl]-pyridin-3-yl}-N-methyl-methanesulfonamide]
7.21	8.00		2 (≈ 4.51 µM)	COc1ncc(-c2ccc3ncc4c(c3c2)n(-c2cn(C)nc2C)c(=O)n4C)cc1C(N)=O [Example 125.2, 5-[1-(1,3-Dimethyl-1H-pyrazol-4-yl)-3-methyl-2-oxo-2,3-dihydro-1H-imidazo[4,5-c]quinolin-8-yl]-2-methoxy-nicotinamide]
6.84	6.03	17 (≈ 40 µM)		COc1ncc(-c2ccc3ncc4c(c3c2)n(-c2cn(C)nc2C)c(=O)n4C)cc1C#N [Example 132, 5-[1-(1,3-Dimethyl-1H-pyrazol-4-yl)-3-methyl-2-oxo-2,3-dihydro-1H-imidazo[4,5-c]quinolin-8-yl]-2-methoxy-nicotinonitrile]
6.44	6.85	164 (≈ 361 µM)		CCN(C)C(=O)Cn1cc(-n2c(=O)n(C)c3cnc4ccc(-c5ccccc5)cc4c32)c(C)n1 [Example 135, N-Ethyl-N-methyl-2-[3-methyl-4-(3-methyl-2-oxo-8-phenyl-2,3-dihydro-imidazo[4,5-c]quinolin-1-yl)-pyrazol-1-yl]-acetamide]
6.51	7.44	36 (≈ 68.5 µM)		CCN(C)C(=O)Cn1cc(-n2c(=O)n(C)c3cnc4ccc(-c5cnc(N6CCCC6)nc5)cc4c32)c(C)n1 [Example 140.1, N-Ethyl-N-methyl-2-{3-methyl-4-[3-methyl-2-oxo-8-(2-pyrrolidin-1-yl-pyrimidin-5-yl)-2,3-dihydro-imidazo[4,5-c]quinolin-1-yl]-pyrazol-1-yl}-acetamide]
6.39	6.35	> 431		CNc1ncc(-c2ccc3ncc4c(c3c2)n(-c2c(C)nn(C)c2C)c(=O)n4C)cc1F [Example 141.1, 8-(5-Fluoro-6-methylamino-pyridin-3-yl)-3-methyl-1-(1,3,5-trimethyl-1H-pyrazol-4-yl)-1,3-dihydro-imidazo[4,5-c]quinolin-2-one]
